Measurements: US20070141028A1, “Cancer gene therapeutic drug” (priority 2003, published 2007)

Tests used:
Assay type in all cases: cell-based
[1] = system: ovarian cancer cells HEY; test: Influence of Fe and ALA on the proliferation inhibitory effect of adenovirus AdE3-1A1.3B (virus rate at IC50); details: IC50 after five days
Method: Ovarian cancer cells HEY were cultured in 12-well plate at a rate of 10,000 cells/well and FeSO4 was added at a concentration of 50 μg/ml, 5 μg/ml, 0.5 μg/ml or 0 μg/ml on the following day and the cytolysis type adenovirus AdE3-1A1.3B was added to all wells. The proliferation inhibitory effect of the adenovirus was evaluated by IC50 after five days.
(§1) Next, the ovarian cancer cell line HEY was cultured in a 12-well plate at a rate of 10,000 cells/well and 5-aminolevulinic acid (ALA) was added at a concentration of 50 μg/ml, 5 μg/ml, 0.5 μg/ml or 0 μg/ml on the following day and the cytolysis type adenovirus AdE3-1A1.3B was added to all wells. The proliferation inhibitory effect of the adenovirus was evaluated by IC50 after five days.
as §1, with “Furthermore,” for “Next,”, “FeSO4” for “5-aminolevulinic acid (ALA)”, “day. In addition,” for “day and”, “AdE3-1A1.3B and 50 μg/ml of 5-aminolevulinic acid (ALA) were added to each well. Only the adenovirus” for “AdE3-1A1.3B”, “a control.” for “all wells.”

[2] = system: cancer cells; test: β-gal assay of adenovirus infectivity
Text: (§2) That is, ALA and Fe can enhance antitumor effect, because they can increase the infectivity of adenovirus to cancer cells and the amount of virus production within the cells.

[3] = system: cancer cells; test: PFU assay of adenovirus production
Text: as §2

| Compound | proliferation inhibitory effect relative to only adenovirus administration ([1]; 50 μg/ml ALA + AdE3-1A1.3B) | infectivity of adenovirus [2] | amount of adenovirus production [3] | proliferation inhibitory effect relative to only adenovirus administration ([1]; 0.5 μg/ml FeSO4 + 50 μg/ml ALA + AdE3-1A1.3B) | proliferation inhibitory effect relative to only adenovirus administration ([1]; 5 μg/ml FeSO4 + 50 μg/ml ALA + AdE3-1A1.3B) | proliferation inhibitory effect relative to only adenovirus administration ([1]; 5 μg/ml FeSO4 + AdE3-1A1.3B) | proliferation inhibitory effect relative to only adenovirus administration ([1]; 50 μg/ml FeSO4 + 50 μg/ml ALA + AdE3-1A1.3B) | proliferation inhibitory effect relative to only adenovirus administration ([1]; 50 μg/ml FeSO4 + AdE3-1A1.3B) |
| --- | --- | --- | --- | --- | --- | --- | --- | --- |
| NCC(=O)CCC(=O)O [ALA, 5-aminolevulinic acid] | about 100 fold | increased infectivity of adenovirus | increased amount of adenovirus production | – | – | – | – | – |
| ferrous sulfate [FeSO4] | – | – | – | about 200 fold | about 700 fold | about 8 fold | about 1,000 fold | about 20 fold |
